Laboratory results published in patent US8222261B2, “Chemical compounds” (GlaxoSmithKline, LLC, priority 2006, dated 2012).

Experiments:
[1] = test system: transgenic wild-type (WT) and GPR119 knock-out (KO) mice; assay: Effect on circulating GLP-1 and GIP in wild-type and GPR119 knock-out mice; type: in vivo; conditions: 30 mg/kg oral gavage; for incretin hormone levels (total GLP-1 and GIP): 60 min after dosing
Experimental: 17 weeks old male transgenic wild-type (WT) and GPR119 knock-out (KO) mice (Charles River Laboratories, USA) were fasted overnight then randomly distributed into two treatment groups for each genotype with n=8 and n=10 animals per treatment group for KO and WT mice respectively. Animals received either vehicle (0.5% HPMC/0.1% Tween80) or a GPR119 agonist (Example 1) at a dose of 30 mg/kg (10 mL/kg), administered by oral gavage. Sixty minutes after the oral gavage the mice were anesthetized using isofluorane and a blood sample was collected by cardiac puncture, before sacrificing the animal by cervical dislocation. Blood samples were treated as described above for determination of incretin hormone levels. Plasma glucose levels were measured using an Olympus AU640 analyzer (Olympus America Inc, Melville, N.Y.), and insulin levels an electrochemoluminescence assay (Bioveris, Gaithersburg Md.).
Data is represented as box plots summarizing the distribution of data for each treatment group, as described above. Horizontal lines represent the mean data. FIG. 3 and FIG. 4 show total GLP-1 and GIP levels measured in circulation following administration of vehicle or 30 mg/kg GPR119 agonist (Example 1) in WT and KO mice.

C57BL/6 male mice = assay: Effect of a GPR119 agonist on circulating GLP-1 and GIP in vivo in mice; conditions: fasted mice, 1, 3, 10, 30 or 60 mg/kg oral gavage, 60 min after dosing
Experimental: Ten weeks old C57BL/6 male mice (Taconic Farms, USA) were fasted overnight then randomly distributed into 6 treatment groups (n=10 mice per treatment group) receiving either vehicle (0.5% HPMC/0.1% Tween80), or a GPR119 agonist (Example 1) at five different doses (1, 3, 10, 30 or 60 mg/kg) by oral gavage. All animals were dosed with a volume of 10 mL/kg of their designated treatment. Sixty minutes after the oral gavage the mice were anesthetized using isofluorane for collection of blood samples by cardiac puncture. All mice were euthanized by cervical dislocation immediately following the cardiac puncture. […] Total GLP-1 levels were determined using a MULTI-ARRAY® electrochemoluminescence assay from Meso Scale Discovery (Cat #K110-FAC-2; Gaithersburg, Md.). Total GIP levels were determined using an ELISA assay (Cat# EZRMGIP-55K, Linco Diagnostic Services, St Charles, Mo.).
Data is represented as box plots summarizing the distribution of individual data point for each treatment group. […] FIG. 1 and FIG. 2 show total GLP-1 and total GIP respectively measured in circulation following administration of vehicle or a GPR119 agonist (Example 1) at doses as indicated.

[2] = test system: transgenic wild type (WT) and GPR119 knock-out (KO) mice; assay: Oral glucose tolerance in wild type and GPR119 knockout mice; type: in vivo; conditions: 2 g/kg dextrose oral 1 h after dosing
Experimental: Male transgenic wild type (WT) and GPR119 knock-out (KO) mice (Charles River Laboratories, USA), at an age of 12 weeks, were fasted overnight (approximately 15 hrs) then randomly grouped (n=8-10) to receive vehicle (0.5% HPMC/0.1% Tween80), a GPR119 agonist (30 mg/kg) or a positive control (10 mg/kg), the DPPIV inhibitor as described above. Vehicle or compounds were delivered orally by oral gavage at a volume of 10 mL/kg, and the tip of tail was nicked using a scalpel to allow whole blood glucose measurements. One hour after administration of vehicle or test compounds, dextrose was administered orally at 2 g/kg. Whole blood glucose levels were measured prior to, and 10, 20, 30, 45, 60, 90 and 120 min after the oral glucose load using a Glucometer (Freestyle, Therasense) from the tip of tail. At the end of the study the mice were sacrificed by cervical dislocation.
The glucose tolerance was calculated as the area under the glucose curve (AUC). Data is represented as box plots summarizing the distribution of data for each treatment group, as described above. Horizontal lines represent the mean data.

Male Wistar rats = assay: Glucose stimulated insulin secretion in rats, hyperglycemic clamp; type: in vivo
Experimental: Male Wistar rats (Taconic farms, USA), weighing 300-350 gram, had catheters surgically implanted into the jugular and femoral veins and allowed to recover for one week following the surgery. On the day before the experiment, food was removed in the afternoon for an overnight fast. The following morning animals were randomly assigned to three treatment groups, vehicle (n=19) and either 1 mg/kg (n=8) or 10 mg/kg (n=8) of a GPR119 agonist (Example 1), and baseline blood samples were collected from the jugular vein. Animals were then administered either vehicle or Example 1 by oral gavage. A second blood sample was collected approximately 90 minutes after the oral gavage immediately prior to starting the hyperglycemic clamp. The clamp was initiated by infusing an empirically determined glucose bolus over 15-30 seconds into the femoral vein, followed by a variable rate glucose infusion adjusted to achieve a stable plasma glucose level of 190-210 mg/dl. After infusion of the glucose bolus, blood samples were collected every 5 minutes for glucose measurements. Samples for C-peptide level were collected a 2, 5, 10, 15, 20, 25, 30, 46, 60, 90 and 120 minutes during the hyperglycemic clamp. C-peptide was measured as a surrogate for insulin as it is co-secreted with insulin in equimolar amount with lower hepatic clearance, thus a better reflection of insulin secretion from the pancreatic β-cells. All blood samples were placed in individual tubes containing a gel clot activator (Cat # T-MG, Terumo Medial Corporation, Elkton, Md.) and allowed to clot in room temperature for 20 min before centrifugation and collection of serum. Glucose levels were measured using an Olympus AU640 analyzer (Olympus America Inc, Melville, N.Y.), and C-peptide levels by an RIA (Linco Diagnostic services, St Charles, Mo.). The rats were sacrificed at the end of the study by an overdose of Nembutal.
There was no difference in plasma glucose levels between treatment groups. […] The characteristic biphasic insulin secretion response (measured as an increase in C-peptide levels) elicited by the rapid increase in plasma glucose levels is shown in FIG. 13, with the first phase occurring within the first 5 minutes and the second phase from 15 minutes and beyond.

CC(C)OC(=O)N1CCC(Oc2ncnc3c2CCN3c2ccc(S(C)(=O)=O)cc2F)CC1 [Example 1, 1-Methylethyl 4-({7-[2-fluoro-4-(methylsulfonyl)phenyl]-6,7-dihydro-5H-pyrrolo[2,3-d]pyrimidin-4-yl}oxy)-1-piperidinecarboxylate]
incretin hormone levels (total GLP-1 and GIP) ([1]; GPR119 knock out mice): without effect
fasting glucose levels ([1]; WT and KO mice, 60 min): not affected
fasting insulin levels ([1]; WT and KO mice, 60 min): not affected
incretin hormone levels (total GLP-1 and GIP) ([1]; WT mice): increase
circulating total GIP levels (C57BL/6 male mice): dose dependent increase
circulating total GLP-1 levels (C57BL/6 male mice): dose dependent increase
glucose tolerance ([2]; GPR119 KO mice, 30 mg/kg oral): no effect
reduction of total glucose AUC ([2]; WT mice, Example 1 30 mg/kg, DPPIV inhibitor 10 mg/kg oral): 28%
glucose infusion rates (GIR) required to sustain the hyperglycemic clamp (Male Wistar rats; 10 mg/kg oral, compared to 1 mg/kg or vehicle): required more exogenous glucose
C-peptide levels (surrogate for insulin secretion) (Male Wistar rats; 10 mg/kg oral, compared to vehicle or 1 mg/kg, throughout the hyperglycemic clamp): significantly increased
plasma glucose levels achieved during the hyperglycemic clamp (Male Wistar rats; 1 or 10 mg/kg oral vs vehicle, clamp started about 90 min after gavage): no difference
first (0-5 min) and second phase (15-90 min) glucose stimulated insulin secretory response (Male Wistar rats; hyperglycemic clamp): augments
